Assay results reported in patent publication US20200332251A1, “PERFUSION MEDIUM” (Boehringer Ingelheim International GmbH, priority 2017, published 2020).

Tests used:
Format in all cases: cell-based, Chinese Hamster
[1] = system: CHO perfusion cell culture; assay: Deep-well plate perfusion cell culture model, acetylsalicylic acid (ASA) in perfusion media with 500 μM arachidonic acid
Experimental: (§1) The below examples, unless specified otherwise, were carried out using the following generalized protocol and apparatus for perfusion cell culture. Two different formats of perfusion culture process were employed for the experiments described in the examples. One is executed in a bioreactor model and the other is in a deep-well plate model.
(§2) The deep-well plate model is carried out using 24 deep-well plates with an 8 day run duration. A starting cell density of 20e^6 cells/ml is targeted for deep well plate model work. The working volume per well is 3 ml and cells are grown at 33° C. with 5% CO2, 80% humidity, and 200 rpm in an incubator with a 5.0 cm orbit diameter. Medium exchanges are performed daily by centrifuging the plate at 1800 rpm for 5 mins, removing supernatant, and re-suspending the cells in fresh media at 70% volume per day (VVD) exchange rate. Further details of the setup is described by Lin et al. (Biotechnol. Prog., 2017, Vol. 33, No. 4).
In this example, the deep-well plate model is used. ASA is an inhibitor of COX-1 and COX-2, which are the metabolic enzymes which convert arachidonic acid to synthesize prostaglandin E2 (See FIG. 2). This experiment therefore analyses the effect of acetylsalicylic acid (ASA) when added to perfusion medium.
The data provide evidence that prostaglandin E2 is effective in triggering cell growth suppression and in increasing cell specific productivity.

[2] = system: CHO perfusion cell culture; assay: cells; conditions: for increase of the cell specific productivity: relative to cell culture without the additive; for cell growth (VCD) relative to normal perfusion media / specific productivity relative to normal perfusion media: each concentration (arachidonic acid 500 μM; PGE2 0.001, 10, 20, 60 μM), before day 6
Experimental: as §1, §2
In this example, the deep-well plate model is used.
Linoleic acid at various concentrations 500 μM, 900 μM, 1350 μM and 1800 μM was added to the cell culture media and the effects on (A) viable cell density (e^5 cells/nil), (B) percent (%) cell viability and (C) specific productivity (qp) were determined.
In this example, the deep-well plate model is used. This example analyzes the effect of arachidonic acid when added to perfusion medium.
The effect of arachidonic acid on (A) viable cell density (e^5 cells/nil), (B) percent (%) cell viability and (C) specific productivity (qp) of the cell culture was determined.
In this example, the deep-well plate model is used. This experiment analyzes the effect of prostaglandin E2 when added to perfusion medium.
At each concentration, the VCD and specific productivity (i.e., specific titer), the growth was suppressed cell growth and the specific productivity was increased before day 6 relative to the cell culture in normal perfusion media.

[3] = system: CHO perfusion cell culture; assay: Deep-well plate perfusion cell culture model, arachidonic acid added to k-pop (high potassium) perfusion medium; conditions: 150 μM to 500 μM in medium with about 34 mM sodium and 94 mM potassium; beyond the effect of high potassium alone
Experimental: as §1
as §2, with “4). […]” for “4).”
The effect of concentrations of arachidonic acid added at 150 μM, 300 μM and 500 μM to a cell culture media having a sodium concentration of approximately 34 mM and a preexisting high potassium concentration of approximately 94 mM, i.e., a low sodium-to-potassium ratio of about 0.4, was determined with respect to (A) viable cell density (e^5 cells/nil), (B) percent (%) cell viability and (C) specific productivity (qp) was determined.

[4] = ASA in perfusion media with 500 μM arachidonic acid
[5] = 500 μM added in the normal perfusion media (Example 3, FIG. 4)
[6] = Cricetulus griseus, read-out: decrease of the VCD (viable cell density)
[7] = added to perfusion medium, 500-1800 μM (Example 2, FIG. 3)

CC(=O)Oc1ccccc1C(=O)O [ASA, acetylsalicylic acid]
specific productivity compared with normal perfusion medium [1, 4]: same effect
viable cell density compared with normal perfusion medium [1, 4]: higher

CCCCC/C=C\C/C=C\C/C=C\C/C=C\CCCC(=O)O [arachidonic acid]
increase of cell specific productivity (qp) [2, 5]: ≥ 46%
suppression of cell growth [2, 5]: up to 31%
increase of the cell specific productivity ([2]; 500 μM in growth medium): up to 52%
cytotoxicity at 500 µM [2, 6]: 15 to 36%
cell growth (VCD) relative to normal perfusion media [2]: suppressed
specific productivity relative to normal perfusion media [2]: increased
cell growth [3]: decreases cell growth
cell specific productivity [3]: improves cell specific productivity
suppressing cell growth and increasing productivity ([1]; 500 μM arachidonic acid when COX-1 and COX-2 are inhibited by ASA): no effect

CCCCC/C=C\C/C=C\CCCCCCCC(=O)O [linoleic acid]
increase of the cell specific productivity ([2]; 500 μM in growth medium): up to 10%
increase of the cell specific productivity ([2]; 900 μM in growth medium): up to 14%
increase of the cell specific productivity ([2]; 1350 μM in growth medium): up to 14%
increase of the cell specific productivity ([2]; 1800 μM in growth medium): up to 30%
viable cell density, viability and specific productivity relative to the normal perfusion media ([2]; 1800 μM, similar to arachidonic acid at 500 μM): most significant difference
cell specific productivity relative to normal perfusion media ([2]; 500, 900 and 1350 μM, day 7, about the same at the three concentrations): significantly increased
cytotoxicity at 500 µM [2, 6]: 6 to 10%
cytotoxicity at 900 µM [2, 6]: 11 to 14%
cytotoxicity at 1350 µM [2, 6]: 11 to 25%
cytotoxicity at 1800 µM [2, 6]: 23 to 39.8%
cell growth [2, 7]: suppresses cell growth
cell specific productivity (qp) [2, 7]: increases cell specific productivity

CCCCC[C@H](O)/C=C/[C@H]1[C@H](O)CC(=O)[C@@H]1C/C=C\CCCC(=O)O [prostaglandin E2]
increase of the cell specific productivity ([2]; 0.001 μM in growth medium): up to 13.5%
increase of the cell specific productivity ([2]; 10 μM in growth medium): up to 34.4%
increase of the cell specific productivity ([2]; 20 μM in growth medium): up to 31%
increase of the cell specific productivity ([2]; 60 μM in growth medium): up to 31%
cell growth (VCD) relative to normal perfusion media [2]: suppressed
specific productivity relative to normal perfusion media [2]: increased
